Experiments:
Assay in all cases: relative viability (nuclei count vs DMSO), 5 days (fraction); higher = more cells survive
[1] = tested on: NCI-H1437
Method in brief: (§1)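 Lung cancer cell lines, seeded in 1536-well plates, were treated the following day by pin tool with a single drug or with five library-drug doses (not always all listed) in √10 steps on top of a fixed anchor-drug dose. Cells were fixed and nuclei stained in one step after 5 days, and nuclei were counted. Relative viability is the nuclei count for treated wells divided by that for vehicle wells, reported as medians of duplicate plates.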

[2] = tested on: NCI-H1623
Method in brief: as §1

[3] = tested on: NCI-H1648
Method in brief: as §1

[4] = tested on: A549
Method in brief: as §1

[5] = tested on: Calu-6
Method in brief: as §1

[6] = tested on: EBC-1
Method in brief: as §1

[7] = tested on: IA-LM
Method in brief: as §1

[8] = tested on: NCI-H1299
Method in brief: as §1

[9] = tested on: NCI-H1703
Method in brief: as §1

Compound | relative viability ([1]; first compound 0.04 µM) | relative viability ([1]; first compound 0.1265 µM) | relative viability ([1]; first compound 0.4 µM) | relative viability ([1]; first compound 4 µM) | relative viability ([2]; first compound 0.04 µM) | relative viability ([2]; first compound 0.1265 µM) | relative viability ([2]; first compound 0.4 µM) | relative viability ([2]; first compound 4 µM) | relative viability ([1]; first compound 0.01 µM) | relative viability ([1]; first compound 0.03162 µM) | relative viability ([1]; first compound 0.3162 µM) | relative viability ([2]; first compound 0.01 µM) | relative viability ([2]; first compound 0.03162 µM) | relative viability ([2]; first compound 0.3162 µM) | other results
C[C@@H]1CN(CC(=O)Nc2ccc3c(c2)Cc2cccc(-c4cc(=O)cc(N5CCOCC5)o4)c2S3)C[C@H](C)O1 + CCNC(=O)c1noc(-c2cc(C(C)C)c(O)cc2O)c1-c1ccc(CN2CCOCC2)cc1 [Luminespib] (partner 0.01 µM) | 1.2 | 1.16 | 1.22 | 0.891 | 0.439 | 0.473 | 0.442 | 0.561 |  |  |  |  |  |  | 
C[C@@H]1CN(CC(=O)Nc2ccc3c(c2)Cc2cccc(-c4cc(=O)cc(N5CCOCC5)o4)c2S3)C[C@H](C)O1 + COc1cccc2cc(-c3nc([C@H]4CC[C@H](C(=O)O)CC4)n4ncnc(N)c34)[nH]c12 [OSI-027] (partner 0.5 µM) | 0.918 | 0.881 | 0.864 | 0.747 | 0.411 | 0.413 | 0.412 | 0.381 |  |  |  |  |  |  | relative viability ([3]; first compound 0.04 µM): 0.247; relative viability ([3]; first compound 0.1265 µM): 0.258; relative viability ([3]; first compound 0.4 µM): 0.242; relative viability ([3]; first compound 4 µM): 0.235
C[C@@H]1CN(CC(=O)Nc2ccc3c(c2)Cc2cccc(-c4cc(=O)cc(N5CCOCC5)o4)c2S3)C[C@H](C)O1 + Cc1cc(Nc2cc(N3CCN(C)CC3)nc(Sc3ccc(NC(=O)C4CC4)cc3)n2)n[nH]1 [Tozasertib] (partner 0.1 µM) | 0.379 | 0.354 | 0.395 | 0.365 | 0.461 | 0.409 | 0.406 | 0.417 |  |  |  |  |  |  | relative viability ([3]; first compound 0.04 µM): 0.3; relative viability ([3]; first compound 0.1265 µM): 0.421; relative viability ([3]; first compound 0.4 µM): 0.542; relative viability ([3]; first compound 4 µM): 0.395
C[C@@H]1CN(CC(=O)Nc2ccc3c(c2)Cc2cccc(-c4cc(=O)cc(N5CCOCC5)o4)c2S3)C[C@H](C)O1 + Cc1nc(Nc2ncc(C(=O)Nc3c(C)cccc3Cl)s2)cc(N2CCN(CCO)CC2)n1 [Dasatinib] (partner 0.075 µM) | 0.334 | 0.34 | 0.387 | 0.359 | 0.57 | 0.555 | 0.51 | 0.588 |  |  |  |  |  |  | 
C[C@@H]1CN(CC(=O)Nc2ccc3c(c2)Cc2cccc(-c4cc(=O)cc(N5CCOCC5)o4)c2S3)C[C@H](C)O1 + N=C(N)NC(=N)NCCc1ccccc1 [Phenformin] (partner 250 µM) | 0.338 | 0.306 | 0.303 | 0.365 | 0.523 | 0.617 | 0.54 | 0.61 |  |  |  |  |  |  | relative viability ([4]; first compound 0.04 µM): 0.106; relative viability ([4]; first compound 0.1265 µM): 0.197; relative viability ([4]; first compound 0.4 µM): 0.252; relative viability ([4]; first compound 4 µM): 0.138
CC(C)Oc1cc(Nc2nc(N[C@@H](C)c3ccc(F)cn3)ncc2Cl)n[nH]1 [AZ23] + CCNC(=O)c1noc(-c2cc(C(C)C)c(O)cc2O)c1-c1ccc(CN2CCOCC2)cc1 [Luminespib] (partner 0.01 µM) |  |  |  |  |  |  |  |  | 1.29 | 1.25 | 1.2 | 0.476 | 0.49 | 0.529 | 
CC(C)Oc1cc(Nc2nc(N[C@@H](C)c3ccc(F)cn3)ncc2Cl)n[nH]1 [AZ23] + COc1cccc2cc(-c3nc([C@H]4CC[C@H](C(=O)O)CC4)n4ncnc(N)c34)[nH]c12 [OSI-027] (partner 0.5 µM) |  |  |  |  |  |  |  |  | 0.878 | 1.01 | 1.05 | 0.401 | 0.401 | 0.43 | relative viability ([3]; first compound 0.03162 µM): 0.258; relative viability ([3]; first compound 0.3162 µM): 0.256
CC(C)Oc1cc(Nc2nc(N[C@@H](C)c3ccc(F)cn3)ncc2Cl)n[nH]1 [AZ23] + Cc1cc(Nc2cc(N3CCN(C)CC3)nc(Sc3ccc(NC(=O)C4CC4)cc3)n2)n[nH]1 [Tozasertib] (partner 0.1 µM) |  |  |  |  |  |  |  |  | 0.434 | 0.449 | 0.413 | 0.402 | 0.427 | 0.504 | relative viability ([3]; first compound 0.03162 µM): 0.542; relative viability ([3]; first compound 0.3162 µM): 0.502
CC(C)Oc1cc(Nc2nc(N[C@@H](C)c3ccc(F)cn3)ncc2Cl)n[nH]1 [AZ23] + Cc1nc(Nc2ncc(C(=O)Nc3c(C)cccc3Cl)s2)cc(N2CCN(CCO)CC2)n1 [Dasatinib] (partner 0.075 µM) |  |  |  |  |  |  |  |  | 0.354 | 0.443 | 0.418 | 0.503 | 0.578 | 0.57 | 
CC(C)Oc1cc(Nc2nc(N[C@@H](C)c3ccc(F)cn3)ncc2Cl)n[nH]1 [AZ23] + N=C(N)NC(=N)NCCc1ccccc1 [Phenformin] (partner 250 µM) |  |  |  |  |  |  |  |  | 0.298 | 0.336 | 0.345 | 0.54 | 0.618 | 0.61 | relative viability ([4]; first compound 0.01 µM): 0.181; relative viability ([4]; first compound 0.03162 µM): 0.227; relative viability ([4]; first compound 0.3162 µM): 0.176
CC(C)Oc1cc(Nc2nc(N[C@@H](C)c3ccc(F)cn3)ncc2Cl)n[nH]1 [AZ23] + O=C(c1cc(Cc2n[nH]c(=O)c3ccccc23)ccc1F)N1CCN(C(=O)C2CC2)CC1 [Olaparib] (partner 8 µM) |  |  |  |  |  |  |  |  | 0.714 | 0.618 | 0.648 |  |  |  | relative viability ([4]; first compound 0.01 µM): 0.201; relative viability ([4]; first compound 0.03162 µM): 0.54; relative viability ([4]; first compound 0.3162 µM): 0.327; relative viability ([5]; first compound 0.03162 µM): 0.662; relative viability ([5]; first compound 0.3162 µM): 0.644; relative viability ([6]; first compound 0.01 µM): 0.884; relative viability ([6]; first compound 0.03162 µM): 0.767; relative viability ([6]; first compound 0.3162 µM): 0.734; relative viability ([7]; first compound 0.01 µM): 0.79; relative viability ([7]; first compound 0.03162 µM): 0.914; relative viability ([7]; first compound 0.3162 µM): 0.949; relative viability ([8]; first compound 0.01 µM): 1.06; relative viability ([8]; first compound 0.03162 µM): 0.984; relative viability ([8]; first compound 0.3162 µM): 1.03; relative viability ([3]; first compound 0.01 µM): 0.6; relative viability ([3]; first compound 0.03162 µM): 1.01; relative viability ([3]; first compound 0.3162 µM): 0.697; relative viability ([9]; first compound 0.03162 µM): 0.411; relative viability ([9]; first compound 0.3162 µM): 0.397
COc1cc(N2CCC(C(N)=O)CC2)ccc1Nc1nc(N)c(Cl)c(Nc2ccccc2S(=O)(=O)C(C)C)n1 [HG-5-88-01] + CCNC(=O)c1noc(-c2cc(C(C)C)c(O)cc2O)c1-c1ccc(CN2CCOCC2)cc1 [Luminespib] (partner 0.01 µM) | 1.09 | 1.1 | 1.07 | 1.23 | 0.539 | 0.619 | 0.529 | 0.47 |  |  |  |  |  |  | relative viability ([1]; first compound 1.265 µM): 0.998
COc1cc(N2CCC(C(N)=O)CC2)ccc1Nc1nc(N)c(Cl)c(Nc2ccccc2S(=O)(=O)C(C)C)n1 [HG-5-88-01] + COc1cccc2cc(-c3nc([C@H]4CC[C@H](C(=O)O)CC4)n4ncnc(N)c34)[nH]c12 [OSI-027] (partner 0.5 µM) | 0.836 | 0.92 | 0.887 | 0.83 | 0.451 | 0.378 | 0.408 | 0.296 |  |  |  |  |  |  | relative viability ([1]; first compound 1.265 µM): 0.735; relative viability ([3]; first compound 0.04 µM): 0.257; relative viability ([3]; first compound 0.1265 µM): 0.258; relative viability ([3]; first compound 0.4 µM): 0.259; relative viability ([3]; first compound 1.265 µM): 0.28; relative viability ([3]; first compound 4 µM): 0.29
COc1cc(N2CCC(C(N)=O)CC2)ccc1Nc1nc(N)c(Cl)c(Nc2ccccc2S(=O)(=O)C(C)C)n1 [HG-5-88-01] + Cc1cc(Nc2cc(N3CCN(C)CC3)nc(Sc3ccc(NC(=O)C4CC4)cc3)n2)n[nH]1 [Tozasertib] (partner 0.1 µM) | 0.409 | 0.398 | 0.356 | 0.316 | 0.512 | 0.449 | 0.399 | 0.377 |  |  |  |  |  |  | relative viability ([1]; first compound 1.265 µM): 0.301; relative viability ([3]; first compound 0.04 µM): 0.406; relative viability ([3]; first compound 0.1265 µM): 0.472; relative viability ([3]; first compound 0.4 µM): 0.43; relative viability ([3]; first compound 1.265 µM): 0.183; relative viability ([3]; first compound 4 µM): 0.329
